# Laboratory results as given in patent US9533978B2 (AstraZeneca AB, priority 2009, dated 2017).
# Structures can show the parent of a compound that is named as a salt.
# Target: T1, Recombinant human TLR7 (Homo sapiens, UniProt Q9NYK1)
# T1 construct: expressed in transfected cells; host or cells: HEK293 cell line stably expressing the pNiFty2-SEAP reporter plasmid; TLR7 in vector pUNO, blasticidin selection
# T1 sequence (Q9NYK1 27-1049): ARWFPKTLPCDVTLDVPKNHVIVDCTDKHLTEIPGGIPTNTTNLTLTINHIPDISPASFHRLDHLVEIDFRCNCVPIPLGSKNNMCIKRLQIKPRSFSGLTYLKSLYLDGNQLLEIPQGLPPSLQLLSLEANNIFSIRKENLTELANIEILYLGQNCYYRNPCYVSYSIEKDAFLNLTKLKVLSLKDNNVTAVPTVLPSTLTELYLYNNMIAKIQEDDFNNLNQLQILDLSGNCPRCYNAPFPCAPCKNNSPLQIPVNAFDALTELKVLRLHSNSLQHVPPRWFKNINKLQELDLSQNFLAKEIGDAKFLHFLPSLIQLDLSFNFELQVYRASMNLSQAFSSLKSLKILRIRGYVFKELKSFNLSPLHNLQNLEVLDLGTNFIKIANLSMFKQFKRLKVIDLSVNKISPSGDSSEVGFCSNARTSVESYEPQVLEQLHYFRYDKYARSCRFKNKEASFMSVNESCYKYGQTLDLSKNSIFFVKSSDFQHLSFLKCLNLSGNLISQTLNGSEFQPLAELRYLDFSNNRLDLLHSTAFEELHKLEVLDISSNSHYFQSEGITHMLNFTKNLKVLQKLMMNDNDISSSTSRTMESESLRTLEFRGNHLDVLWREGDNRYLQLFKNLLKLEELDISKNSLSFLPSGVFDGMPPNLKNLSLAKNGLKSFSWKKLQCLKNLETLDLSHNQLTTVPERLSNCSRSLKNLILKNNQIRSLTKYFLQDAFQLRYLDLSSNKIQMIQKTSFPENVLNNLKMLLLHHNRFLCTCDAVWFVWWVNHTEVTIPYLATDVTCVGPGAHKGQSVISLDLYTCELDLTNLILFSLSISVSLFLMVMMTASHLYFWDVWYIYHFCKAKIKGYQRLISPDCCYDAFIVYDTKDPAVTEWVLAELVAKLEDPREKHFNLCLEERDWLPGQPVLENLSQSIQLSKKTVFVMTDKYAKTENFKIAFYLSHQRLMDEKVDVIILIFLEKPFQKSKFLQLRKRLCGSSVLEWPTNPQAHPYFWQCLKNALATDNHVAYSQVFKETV
# Assay: Human TLR7 assay (HEK293 SEAP reporter)
# Format: cell-based
# Conditions: degree of TLR7 activation; SEAP induction in HEK293 cells stably expressing recombinant human TLR7 and pNiFty2-SEAP reporter, overnight incubation at 37° C., 0.1% (v/v) DMSO
# Method: The ability of compounds to activate TLR7 in vitro was assessed using the human TLR7 assay described below.
# Recombinant human TLR7 was stably expressed in a HEK293 cell line already stably expressing the pNiFty2-SEAP reporter plasmid; integration of the reporter gene was maintained by selection with the antibiotic zeocin. The most common variant sequence of human TLR7 (represented by the EMBL sequence AF240467) was cloned into the mammalian cell expression vector pUNO and transfected into this reporter cell-line. Transfectants with stable expression were selected using the antibiotic blasticidin. In this reporter cell-line, expression of secreted alkaline phosphatase (SEAP) is controlled by an NFkB/ELAM-1 composite promoter comprising five NFkB sites combined with the proximal ELAM-1 promoter. TLR signaling leads to the translocation of NFkB and activation of the promoter results in expression of the SEAP gene. TLR7-specific activation was assessed by determining the level of SEAP produced following overnight incubation of the cells at 37° C. with the standard compound in the presence of 0.1% (v/v) dimethylsulfoxide (DMSO). Concentration dependent induction of SEAP production by compounds was expressed as the concentration of compound which produced half of the maximal level of SEAP induction for that compound (EC50).
row,SMILES,EC50 [nM]
1,"CCCCCNc1nc(N)nc(C)c1Cc1cccc(OCCN(C)C)c1 [Example 27, 5-(3-(2-(Dimethylamino)ethoxy)benzyl)-6-methyl-N^4-pentylpyrimidine-2,4-diamine]",398
2,"CCCCCNc1nc(N)nc(C)c1Cc1ccc(OCCCN(C)C)cc1OC [Example 11, 5-(4-(3-(Dimethylamino)propoxy)-2-methoxybenzyl)-6-methyl-N^4-pentylpyrimidine-2,4-diamine]",2.51
3,"CCCCCNc1nc(N)nc(C)c1Cc1ccc(OCCCN2CCN(C)CC2)cc1OC [Example 38, 5-(2-Methoxy-4-(3-(4-methylpiperazin-1-yl)propoxy)benzyl)-6-methyl-N^4-pentylpyrimidine-2,4-diamine]",6.31
4,CCCCCNc1nc(N)nc(C)c1Cc1cccc(OCCCN(C)C)c1 [Example 25],794
5,CCCCCNc1nc(N)nc(C)c1Cc1ccc(OCCCN(C)C)cc1 [Example 4],63.1
6,"CCCCCNc1nc(N)nc(C)c1Cc1ccc(OC)cc1 [Example 1, 5-(4-Methoxybenzyl)-6-methyl-N^4-pentylpyrimidine-2,4-diamine]",2000
7,"CCCCCNc1nc(N)nc(C)c1Cc1ccc(CCCCN(C)C)cc1OC [Example 39, 5-(4-(4-(Dimethylamino)butyl)-2-methoxybenzyl)-6-methyl-N^4-pentylpyrimidine-2,4-diamine]",3.98
8,"COC(=O)Cc1cccc([C@@H](CCO)Nc2nc(N)nc(C)c2Cc2ccc(OCCCN(C)C)cc2)c1 [Example 34, (R)-Methyl 2-(3-(1-(2-amino-5-(4-(3-(dimethylamino)propoxy)benzyl)-6-methylpyrimidin-4-ylamino)-3-hydroxypropyl)phenyl)acetate]",2000
9,"CCCCCNc1nc(N)nc(C)c1Cc1cccc(CN(C)C)c1 [Example 29, 5-(3-((Dimethylamino)methyl)benzyl)-6-methyl-N^4-pentylpyrimidine-2,4-diamine]",316
10,"CCCCCNc1nc(N)nc(C)c1Cc1ccc(OCCN2CCCCC2)cc1 [Example 5, 6-Methyl-N^4-pentyl-5-(4-(2-(piperidin-1-yl)ethoxy)benzyl)pyrimidine-2,4-diamine]",126
11,"CCCCCNc1nc(N)nc(C)c1Cc1ccc(O)cc1 [Example 2, 4-(2-Amino-4-methyl-6-pentylamino-pyrimidin-5-ylmethyl)-phenol]",1260
12,"CCCCCNc1nc(N)nc(C)c1Cc1cccc(O)c1 [Example 24, 3-((2-Amino-4-methyl-6-(pentylamino)pyrimidin-5-yl)methyl)phenol]",5010
13,"CCCCCNc1nc(N)nc(C)c1Cc1ccc(OCCCN(C)C)cc1C [Example 33, 5-(4-(3-(Dimethylamino)propoxy)-2-methylbenzyl)-6-methyl-N^4-pentylpyrimidine-2,4-diamine]",251
14,"CCCCCNc1nc(N)nc(C)c1Cc1cccc(OCCN2CCCCC2)c1 [Example 26, 6-Methyl-N^4-pentyl-5-(3-(2-(piperidin-1-yl)ethoxy)benzyl)pyrimidine-2,4-diamine]",631
15,"CCCCCNc1nc(N)nc(C)c1Cc1cccc(CCCN(C)C)c1 [Example 32, 5-(3-(3-(Dimethylamino)propyl)benzyl)-6-methyl-N^4-pentylpyrimidine-2,4-diamine]",251
16,"CCCCCNc1nc(N)nc(C)c1Cc1ccc(OCCCO)cc1 [Example 8, 3-(4-((2-Amino-4-methyl-6-(pentylamino)pyrimidin-5-yl)methyl)-phenoxy)propan-1-ol]",501
17,CCCCCNc1nc(N)nc(C)c1Cc1ccccc1OCCCN(C)C [Example 22],1260

row,SMILES,EC50 [nM]
1,"CCCCCNc1nc(N)nc(C)c1Cc1cccc(OCCN2CCCC2)c1 [Example 28, 6-Methyl-N^4-pentyl-5-(3-(2-(pyrrolidin-1-yl)ethoxy)benzyl)pyrimidine-2,4-diamine]",1260
2,"CCCCCNc1nc(N)nc(C)c1Cc1cc(C(=O)OC)ccc1F [Example 17, Methyl 3-((2-amino-4-methyl-6-(pentylamino)pyrimidin-5-yl)methyl)-4-fluorobenzoate]",3160
3,"CCCCCNc1nc(N)nc(C)c1Cc1ccc(C(=O)OC)cc1F [Example 18, Methyl 4-((2-amino-4-methyl-6-(pentylamino)pyrimidin-5-yl)methyl)-3-fluorobenzoate]",2000
4,"CCCCCNc1nc(N)nc(C)c1Cc1ccc(CCCN(C)C)cc1 [Example 31, 5-(4-(3-(Dimethylamino)propyl)benzyl)-6-methyl-N^4-pentylpyrimidine-2,4-diamine]",100
5,"CCC[C@@H](CO)Nc1nc(N)nc(C)c1Cc1ccc(CO)cc1OC [Example 40, (S)-2-(2-Amino-5-(4-(hydroxymethyl)-2-methoxybenzyl)-6-methyl-pyrimidin-4-ylamino)pentan-1-ol]",20
6,"CCCCCNc1nc(N)nc(C)c1Cc1cccc(OC)c1 [Example 23, 5-(3-Methoxybenzyl)-6-methyl-N4-pentylpyrimidine-2,4-diamine]",2510
7,"CCCCCNc1nc(N)nc(C)c1Cc1ccc(OCCCN2CCCC2)cc1 [Example 9, 6-Methyl-N^4-pentyl-5-(4-(3-(pyrrolidin-1-yl)propoxy)benzyl)pyrimidine-2,4-diamine]",63.1
8,"COC(=O)Cc1cccc([C@@H](CCO)Nc2nc(N)nc(C)c2Cc2ccc(OCCCN(C)C)cc2OC)c1 [Example 35, (R)-Methyl 2-(3-(1-(2-amino-5-(4-(3-(dimethylamino)propoxy)-2-methoxybenzyl)-6-methylpyrimidin-4-ylamino)-3-hydroxypropyl)phenyl)acetate]",316
9,"CCC[C@@H](CO)Nc1nc(N)nc(C)c1Cc1ccc(C(=O)OC)cc1OC [Example 13, (S)-Methyl 4-((2-amino-4-(1-hydroxypentan-2-ylamino)-6-methyl-pyrimidin-5-yl)methyl)-3-methoxybenzoate]",100
10,"CCCCCNc1nc(N)nc(C)c1Cc1ccc(C(=O)OC)cc1OC [Example 12, Methyl 4-((2-amino-4-methyl-6-(pentylamino)pyrimidin-5-yl)methyl)-3-methoxybenzoate]",63.1
11,"CCCCCNc1nc(N)nc(C)c1Cc1ccc(OCCCN2CCOCC2)cc1OC [Example 37, 5-(2-Methoxy-4-(3-morpholinopropoxy)benzyl)-6-methyl-N^4-pentylpyrimidine-2,4-diamine]",7.94
12,"CCCCCNc1nc(N)nc(C)c1Cc1ccc(C#CCN(C)C)cc1 [Example 30, 5-(4-(3-(Dimethylamino)prop-1-ynyl)benzyl)-6-methyl-N4-pentyl-pyrimidine-2,4-diamine]",100
13,"CCC[C@@H](CO)Nc1nc(N)nc(C)c1Cc1ccc(C(=O)OCCCCN(C)C)cc1OC [Example 15, (S)-4-(Dimethylamino)butyl 4-((2-amino-4-(1-hydroxypentan-2-yl-amino)-6-methylpyrimidin-5-yl)methyl)-3-methoxybenzoate benzenesulfonate salt]",126
14,"CCCCCNc1nc(N)nc(C)c1Cc1ccc(OCCCN2CCN(C)CC2)cc1 [Example 10, 6-Methyl-5-(4-(3-(4-methylpiperazin-1-yl)propoxy)benzyl)-V-pentylpyrimidine-2,4-diamine]",79.4
15,"CCCCCNc1nc(N)nc(C)c1Cc1cc(C(=O)OC)ccc1OC [Example 16, Methyl 3-((2-amino-4-methyl-6-(pentylamino)pyrimidin-5-yl)methyl)-4-methoxybenzoate]",50.1
16,"CCCCCNc1nc(N)nc(C)c1Cc1ccc(OCCN2CCCC2)cc1 [Example 6, 6-Methyl-N^4-pentyl-5-(4-(2-(pyrrolidin-1-yl)ethoxy)benzyl)pyrimidine-2,4-diamine]",100
17,"CCCCCNc1nc(N)nc(C)c1Cc1ccccc1OCC [Example 21, 5-(2-Ethoxybenzyl)-6-methyl-N^4-pentylpyrimidine-2,4-diamine]",316
